Source: ChEMBL document CHEMBL1141366, “Isolation of quinic acid derivatives and flavonoids from the aerial parts of Lactuca indica L. and their hepatoprotective activity in vitro” (Bioorg Med Chem Lett, 2007)
Calls of active or inactive are those of the source. No cut-off for these calls is given here.

Legend:
Hepatitis B virus [1] = assay: Antiviral activity against hepatitis B virus assessed as inhibition of viral particle production; type: functional, organism-based
Hepatitis B virus [2] = assay: Hepatoprotective activity against HBV in human HepG2.2.15 cells; type: functional, organism-based; settings: HepG2 2.2.15

Compound	Activity (Hepatitis B virus [1])	Activity (Hepatitis B virus [2])
O=C(/C=C/c1ccc(O)c(O)c1)O[C@@H]1C[C@](O)(C(=O)O)C[C@@H](O)[C@H]1O	Active	Active
O=c1c(O[C@@H]2O[C@H](CO)[C@@H](O)[C@H](O)[C@H]2O)c(-c2ccc(O)c(O)c2)oc2cc(O)cc(O)c12	Active	Active
O=C(/C=C/c1ccc(O)c(O)c1)O[C@@H]1[C@H](O)C[C@@](O)(C(=O)O)C[C@H]1OC(=O)/C=C/c1ccc(O)c(O)c1	Active	Active
O=C(/C=C/c1ccc(O)c(O)c1)O[C@@H]1C[C@](O)(C(=O)O)C[C@@H](OC(=O)/C=C/c2ccc(O)c(O)c2)[C@H]1O	Active	Active
O=C(/C=C/c1ccc(O)c(O)c1)O[C@@H]1C[C@@](O)(C(=O)O)C[C@@H](O)[C@@H]1O	Active	Active
O=C(/C=C/c1ccc(O)c(O)c1)O[C@H]1[C@H](O)C[C@](O)(C(=O)O)C[C@H]1OC(=O)/C=C/c1ccc(O)c(O)c1	Active	Active
O=C(/C=C/c1ccc(O)cc1)O[C@@H]1C[C@](O)(C(=O)O)C[C@@H](O)[C@H]1O	Active	Active
